For one data set, the system named is Rat. The settings on record: cited from earlier work.
A further data set concerns Rabbit. The settings on record: cited from earlier work.
The subject of another data set is Mouse. The following applies: cited from earlier work.
Data set [1] is described as follows: Non-hygroscopicity test (stability chambers, water content by Karl Fischer method). Format: physicochemical. The settings on record: for Final Moisture Content After 24hrs / Initial Moisture Content: Karl Fischer; for hygroscopic properties: assessment in words, comparable to α and β forms of imatinib mesylate; for Initial Moisture Content: before storage in stability chamber.
Experimental: The water contents were measured by a well known method, namely Karl Fischer method for determining water quantities.

In the next data set the test system is Quail. The settings on record: Oral; cited from earlier work.

SMILES strings stand for the structures. Where a name gives a salt, the structure may show the parent alone. Read-outs that look alike come from different tables or passages of the source.

What is called LD50 is the dose expected to kill half of the subjects tested. As for `N[C@@H](CC(=O)O)C(=O)O` [Aspartic acid], the LD50 with Rat (Oral, Rat) is given as 5000 mg/kg; in the data set on Rabbit (Skin), 5000 mg/kg.

In the case of `CC1(C)C2CCC1(CS(=O)(=O)O)C(=O)C2` (stereo not drawn) [Camphor sulfonic acid], in the data set on Mouse (Subcutaneous, Mouse), the LD50 is 2502 mg/kg.

In the case of `CCCCCCCCCC(=O)O` [Capric acid], the LD50 is 3730 mg/kg in the data set with Rat (Oral, Rat) and 1770 mg/kg in the data set on Rabbit (Oral).

Regarding `Cc1ccc(NC(=O)c2ccc(CN3CCN(C)CC3)cc2)cc1Nc1nccc(-c2cccnc2)n1.O=C(O)c1cc(=O)[nH]c(=O)[nH]1` [Imatinib Orotate, 4-[(4-Methyl-1-piperazinyl)methyl]-N-[4-methyl-3-[[4-(3-pyridinyl)-2-pyrimidinyl]amino]phenyl]-benzamide, orotate], in data set [1] (25°C at humidity of 60%), the “Final Moisture Content After 24hrs” value stood at 0.7%. For the same compound, in data set [1] (40 °C at humidity of 75%), the “Final Moisture Content After 24hrs” value came to 0.7%. Also, in data set [1], the hygroscopic properties result is listed as “considerably low hygroscopic” and the “Initial Moisture Content” value turned out to be 0.4%.

Consider `Cc1ccc(NC(=O)c2ccc(CN3CCN(C)CC3)cc2)cc1Nc1nccc(-c2cccnc2)n1` [Imatinib Oxalate, 4-[(4-Methyl-1-piperazinyl)methyl]-N-[4-methyl-3-[[4-(3-pyridinyl) -2-pyrimidinyl]amino]phenyl]-benzamide, oxalate], for which the “Final Moisture Content After 24hrs” value in data set [1] (25°C at humidity of 60%) was found to be 3.4%. In addition, the “Final Moisture Content After 24hrs” value in data set [1] (40 °C at humidity of 75%) is given as 3.6%. Besides, in data set [1], the hygroscopic properties entry is “considerably low hygroscopic” and the “Initial Moisture Content” value worked out at 1.6%.

As to `CCCCCCCCCCCC(=O)O` [Lauric acid], the 50% lethal dose (LD50) with Rat (Oral, Rat) is 12000 mg/kg; in the data set with Mouse (mouse, in vivo, iv), 131 mg/kg.

For `CS(=O)(=O)O` [Methanesulfonic acid, reference compound], the LD50 with Quail is on record as 1000 mg/kg; in the data set on Rat (rat, in vivo, po), 200 mg/kg.

Take `CCCCCCCC/C=C\CCCCCCCC(=O)O` [Oleic acid]: the LD50 with Rat (Oral, Rat) was 74000 mg/kg; in the data set with Mouse (Intraperitoneal, Mouse), 282 mg/kg; in the data set on Mouse (Intravenous, Mouse) it was 230 mg/kg.

With `O=C(O)c1cc(=O)[nH]c(=O)[nH]1` [Orotic acid], the LD50 with Mouse (mouse, in vivo, ip) is reported as 841 mg/kg; in the data set on Mouse (mouse, in vivo, iv) it was 770 mg/kg; in the data set on Mouse (mouse, in vivo, po), 2000 mg/kg.

`O=C(O)Cc1ccccc1` [Phenyl acetic acid]: the LD50 with Rat (Intraperitoneal, Rat) is given as 1600 mg/kg; in the data set with Rat (Oral, Rat), 2250 mg/kg.

As to `Cc1ccc(S(=O)(=O)O)cc1` [p-Toluene sulfonic acid], the LD50 was 2480 mg/kg in the data set on Rat (Oral, Rat) and 400 mg/kg in the data set on Mouse (Oral, Mouse).

The values are drawn from patent publication EP2062885A1, “Acid addition salts of imatinib and formulations comprising the same” (priority 2007, dated 2009).
